According to patent publication US20110269763A1, “CRTH2 receptor ligands for medicinal uses” (7TM Pharma A/S, priority 2004, published 2011):

Assays:
[1] = target: T1, human CRTH2 (Homo sapiens, UniProt Q9Y5Y4, V204A); experiment: Functional antagonist BRET assay on HEK293 cells stably expressing human CRTH2-Rluc and GFP2-β-arr2; format: cell-based; set-up: expressed in transfected cells; conditions: read-out: Antag. IC50
T1 sequence (Q9Y5Y4 1-395 V204A): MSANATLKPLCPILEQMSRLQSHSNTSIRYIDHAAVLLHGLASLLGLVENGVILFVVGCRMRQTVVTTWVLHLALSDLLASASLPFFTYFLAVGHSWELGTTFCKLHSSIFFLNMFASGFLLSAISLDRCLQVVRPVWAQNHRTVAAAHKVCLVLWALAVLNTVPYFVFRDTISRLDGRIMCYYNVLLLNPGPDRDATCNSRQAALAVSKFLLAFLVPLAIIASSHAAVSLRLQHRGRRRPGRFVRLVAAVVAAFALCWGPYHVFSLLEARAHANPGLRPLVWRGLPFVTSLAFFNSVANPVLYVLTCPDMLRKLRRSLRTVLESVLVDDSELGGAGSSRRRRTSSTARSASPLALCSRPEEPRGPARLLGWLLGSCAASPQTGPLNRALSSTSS
How it was run: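 Cells (2×10^6/mL in D-PBS with glucose) were preincubated 15 min with antagonist at 1% DMSO, then agonist and DeepBlueC were co-injected. Emission at 400 and 515 nm was read 5 s later, and the mBRET ratio (515/400 nm) was used to derive IC50 from concentration–response curves.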

[2] = target: T1, human CRTH2; experiment: Receptor binding assay: [3H]PGD2 competition binding on whole COS-7 cells transiently transfected with CRTH2 (also stable HEK293 cells); set-up: expressed in transfected cells; host or cells: COS-7 (transient, calcium phosphate)
How it was run: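 Whole COS-7 cells transiently transfected with human CRTH2 (calcium phosphate), or stable HEK293 cells, competed against 0.1 nM [3H]PGD2 in HBSS/10 mM HEPES with 1% DMSO, 3 h at 4 °C. Nonspecific binding with 10 μM PGD2; scintillation counting, duplicates. IC50 from curve fitting.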

[3] = BRET, antagonist incubated 15 minutes prior to agonist
[4] = competition with 0.1 nM [3H]PGD2, whole cells, 3 h at 4° C.
[5] = functional antagonist assay, Table 3
[6] = receptor binding assay, Table 3

Compound | IC50 [1, 3] [nM] | IC50 [2, 4] [nM] | IC50 [1, 5] [nM] | IC50 [2, 6] [nM]
O=C(O)COc1ccc([N+](=O)[O-])cc1C(=O)c1cnn(-c2ccccc2)c1 [D20, 4-Nitro-2-(1-phenyl-1H-pyrazole-4-carbonyl)phenoxyacetic acid] | < 500 | < 500 |  | 
O=C(O)COc1ccc(Br)cc1-c1coc(-c2ccccc2)n1 [D83, [4-Bromo-2-(2-phenyloxazol-4-yl)phenoxy]acetic acid] | > 5000 | < 500 |  | 
O=C(O)COc1ccc(Br)cc1-c1nc(-c2ccc(Cl)cc2Cl)no1 [D129, {4-Bromo-2-[3-(2,4-dichlorophenyl)-[1,2,4]oxadiazol-5-yl]phenoxy}acetic acid] |  |  | < 500 | < 500
O=C(O)COc1ccc(Br)cc1-c1noc(-c2ccc(Cl)cc2)n1 [D135, {4-Bromo-2-[5-(4-chlorophenyl)-[1,2,4]oxadiazol-3-yl]phenoxy}acetic acid] | < 500 | < 500 |  | 
COc1ccc(-n2cc(C(=O)c3cc(Br)ccc3OCC(=O)O)cn2)cc1 [D7, 4-Bromo-2-[1-(4-methoxyphenyl)-1H-pyrazole-4-carbonyl]phenoxyacetic acid] | < 500 | < 500 |  | 
C[C@H](Oc1ccc(Br)cc1C(=O)c1cnn(-c2ccccc2)c1)C(=O)O [(S)-D37, 2(S)-[4-Bromo-2-(1-phenyl-1H-pyrazole-4-carbonyl)-phenoxy]-propionic acid] | < 500 | < 500 |  | 
O=C(O)COc1ccc(Br)cc1-c1nc(Cc2ccccc2)no1 [D115, [2-(3-Benzyl-[1,2,4]oxadiazol-5-yl)-4-bromo-phenoxy]-acetic acid] |  |  | < 500 | < 500
O=C(O)COc1ccc(Br)cc1C(=O)c1cnn(Cc2ccccc2)c1 [D56, [2-(1-Benzyl-1H-pyrazole-4-carbonyl)-4-bromophenoxy]acetic acid] | < 500 | < 500 |  | 
O=C(O)COc1ccc(Br)cc1-c1noc(-c2cccc(Cl)c2)n1 [D136, {4-Bromo-2-[5-(3-chlorophenyl)-[1,2,4]oxadiazol-3-yl]phenoxy}acetic acid] | < 500 | < 500 |  | 
O=C(c1cnn(-c2ccccc2)c1)c1cc(Br)ccc1OCc1nn[nH]n1 [D4, [5-Bromo-2-(2H-tetrazol-5-ylmethoxy)phenyl](1-phenyl-1H-pyrazol-4-yl)ketone] | > 5000 | < 500 |  | 
CC(Oc1ccc(Br)cc1C(=O)c1cnn(-c2ccccc2Oc2ccccc2)c1)C(=O)O (stereo not drawn) [D47, 2-{4-Bromo-2-[1-(2-phenoxyphenyl)-1H-pyrazole-4-carbonyl]phenoxy}propionic acid] | < 500 | < 500 |  | 
COc1ccc(-c2cnnc(NN=Cc3ccccc3OCC(=O)O)n2)cc1 [D153] | > 5000 | 500 to 5000 |  | 
O=C(O)COc1ccc(Br)cc1CN1CC(=O)N(CCc2ccccc2)C1=O [D140, 4-Bromo-2-(2,4-dioxo-3-phenethylimidazolidin-1-ylmethyl)phenoxyacetic acid] | 500 to 5000 | < 500 |  | 
CCOc1ccc(-c2nc(-c3cc(Br)ccc3OCC(=O)O)co2)cc1 [D87, {4-Bromo-2-[2-(4-ethoxyphenyl)oxazol-4-yl]phenoxy}acetic acid] | > 5000 | < 500 |  | 
O=C(O)COc1ccc(Br)cc1C(=O)c1cnn(-c2ccc(Cl)c(Cl)c2)c1 [D61, {4-Bromo-2-[1-(3,4-dichlorophenyl)-1H-pyrazole-4-carbonyl]phenoxy}acetic acid] | < 500 | < 500 |  | 
O=C(O)COc1ccc(Br)cc1C(=O)c1cnn(-c2cccc3ccccc23)c1 [D82, [4-Bromo-2-(1-naphthalen-1-yl-1H-pyrazole-4-carbonyl)phenoxy]acetic acid] | < 500 | < 500 |  | 
O=C(O)COc1ccc([N+](=O)[O-])cc1C(=O)c1cnn(-c2ccc(Cl)cc2)c1 [D19, 4-Nitro-2-[1-(4-chlorophenyl)-1H-pyrazole-4-carbonyl]phenoxyacetic acid] | < 500 | < 500 |  | 
O=C(O)COc1ccc(Br)cc1C(=O)c1cnn(-c2c(Cl)cc(Cl)cc2Cl)c1 [D35, 4-Bromo-2-[1-(2,4,6-trichlorophenyl)-1H-pyrazole-4-carbonyl]phenoxyacetic acid] | < 500 | < 500 |  | 

Compound | IC50 [1, 3] [nM] | IC50 [2, 4] [nM] | IC50 [1, 5] [nM] | IC50 [2, 6] [nM]
CC(Oc1ccc(Br)cc1C(=O)c1cnn(-c2ccc(Cl)cc2Cl)c1)C(=O)O (stereo not drawn) [D51, 2-{4-Bromo-2-[1-(2,4-dichlorophenyl)-1H-pyrazole-4-carbonyl]phenoxy}propionic acid] | < 500 | < 500 |  | 
O=C(O)COc1ccc(Br)cc1C(=O)c1cnn(-c2ccccc2Oc2ccccc2)c1 [D43, {4-Bromo-2-[1-(2-phenoxyphenyl)-1H-pyrazole-4-carbonyl]phenoxy}acetic acid] | < 500 | < 500 |  | 
O=C(O)COc1ccc(-c2ccc(Cl)cc2)cc1C(=O)c1cnn(-c2ccccc2)c1 [D9, [4′-Chloro-3-(1-phenyl-1H-pyrazole-4-carbonyl)biphenyl-4-yloxy]acetic acid] | < 500 | < 500 |  | 
CC(Oc1ccc(Br)cc1C(=O)c1cnn(Cc2ccccc2)c1)C(=O)O (stereo not drawn) [D57, 2-[2-(1-Benzyl-1H-pyrazole-4-carbonyl)-4-bromophenoxy]propionic acid] | < 500 | < 500 |  | 
{4-Bromo-2-[1-(4-bromo-2-chlorophenyl)-1H-pyrazole-4-carbonyl]phenoxy}acetic acid [D67] | < 500 | < 500 |  | 
CC(C)c1ccccc1-n1cc(C(=O)c2cc(Br)ccc2OCC(=O)O)cn1 [D73, {4-Bromo-2-[1-(2-isopropylphenyl)-1H-pyrazole-4-carbonyl]phenoxy}acetic acid] | < 500 | < 500 |  | 
O=C(O)COc1ccccc1C=NNC(=O)CSc1nnc(-c2ccc(Cl)cc2)n1-c1ccccc1 [D156] | 500 to 5000 | < 500 |  | 
COc1ccc(OCC(=O)O)c(C(=O)c2cnn(-c3ccccc3)c2)c1 [D36, 4-Methoxy-2-[1-phenyl-1H-pyrazole-4-carbonyl]phenoxyacetic acid] | 500 to 5000 | < 500 |  | 
O=C(O)COc1ccc(Br)cc1C=NNc1nncc(-c2ccccc2)n1 [D152] | 500 to 5000 | < 500 |  | 
CC(Oc1ccc(Br)cc1C(=O)c1cnn(-c2ccccc2)c1)C(=O)O (racemic) [D37, 2-[4-Bromo-2-(1-phenyl-1H-pyrazole-4-carbonyl)phenoxy]propionic acid] | < 500 | < 500 |  | 
O=C(O)COc1ccc([N+](=O)[O-])cc1C(=O)c1cnn(-c2ccccc2Br)c1 [D28, 4-Nitro-2-[1-(2-bromophenyl)-1H-pyrazole-4-carbonyl]phenoxyacetic acid] | < 500 | < 500 |  | 
Cc1ccc(OCC(=O)O)c(C(=O)c2cnn(-c3ccccc3)c2)c1 [D11, [4-Methyl-2-(1-phenyl-1H-pyrazole-4-carbonyl)phenoxy]acetic acid] | 500 to 5000 | < 500 |  | 
O=C(O)COc1ccc(Br)cc1-c1nc(Cc2cccc(Cl)c2)no1 [D130, {4-Bromo-2-[3-(3-chlorobenzyl)-[1,2,4]oxadiazol-5-yl]phenoxy}acetic acid] |  |  | < 500 | < 500
Cc1cc(Cl)ccc1-n1cc(C(=O)c2cc(Br)ccc2OC(C)C(=O)O)cn1 (stereo not drawn) [D62, 2-{4-Bromo-2-[1-(4-chloro-2-methylphenyl)-1H-pyrazole-4-carbonyl]phenoxy}propionic acid] | < 500 | < 500 |  | 
O=C(O)COc1ccc(Br)cc1C(=O)c1cnn(-c2ccccc2F)c1 [D22, 4-Bromo-2-[1-(2-fluorophenyl)-1H-pyrazole-4-carbonyl]phenoxyacetic acid] | < 500 | < 500 |  | 
CCOc1ccccc1-n1cc(C(=O)c2cc(Br)ccc2OC(C)C(=O)O)cn1 (stereo not drawn) [D48, 2-{4-Bromo-2-[1-(2-ethoxyphenyl)-1H-pyrazole-4-carbonyl]phenoxy}propionic acid] | < 500 | < 500 |  | 
O=C(O)COc1ccc(Br)cc1C(=O)c1cnn(-c2cccc(C(F)(F)F)c2)c1 [D25, 4-Bromo-2-[1-(3-trifluoromethylphenyl)-1H-pyrazole-4-carbonyl]phenoxyacetic acid] | < 500 | < 500 |  | 
O=C(O)COc1ccc(Br)cc1C(=O)c1cnn(-c2ccccc2)c1 [D1, 4-Bromo-2-(1-phenyl-1H-pyrazole-4-carbonyl)phenoxyacetic acid] | < 500 | < 500 |  | 
